Results taken from patent publication US20170349532A1, “CATIONIC LIPID” (Kyowa Hakko Kirin Co., Ltd., priority 2011, published 2017).

Experiment: Average particle diameter of preparation (Zetasizer Nano ZS)
Type: physicochemical
Conditions: Comparative Examples 1 to 8, prepared as Example 118 with apo-b siRNA
Excerpt: Preparations were produced using the compounds obtained in Examples 1 to 117, as follows.
APO-B siRNA was used as the nucleic acid. APO-B siRNA suppresses expression of an apolipoprotein-B (hereinafter, “apo-b”) gene and has a sense strand with the base sequence 5′-GmUCAmUCACACmUGAAmUACCAAmU-3′ (the sugars attached to the bases appended with m are 2′-O-methyl-substituted riboses), and an antisense strand with the base sequence 5′-[…]-3′ (the 5′-end is phosphorylated). The sense strand and the antisense strand were obtained from Nippon EGT, GeneDesign, Inc., Invitrogen or Hokkaido System Science Co., Ltd., and annealed to prepare the nucleic acid (hereinafter, “apo-b siRNA”).
A solution comprising the constituent components was prepared by dissolving each of the weighed samples in 90 vol % ethanol in 8.947/1.059/5.708/13.697 mmol/L [compounds 1 to 117 obtained in Examples 1 to 117/sodium 1,2-dimyristoyl-sn-glycero-3-phosphoethanolamine-N-(methoxy(polyethylene glycol)-2000) (PEG-DMPE Na,N-(carbonylmethoxypolyethylene glycol 2000)-1,2-dimyristoyl-sn-glycero-3-phosphoethanolamine sodium salt, NOF Corporation)/distearoylphosphatidyl choline (DSPC, 1,2-distearoyl-sn-glycero-3-phosphocholine, NOF Corporation)/cholesterol (Avanti Polar Lipids)]. Separately, apo-b siRNA/distilled water (24 mg/mL) was diluted with a Tris-EDTA buffer (200 mM Tris-HCl, 20 mM EDTA, Invitrogen) and a 20 mM citric acid buffer (pH 5.0) to prepare a 1.5 mg/mL apo-b siRNA aqueous solution (2 mM Tris-EDTA/20 mM citric acid buffer, pH 5.0).
The resulting lipid solution was heated to 37° C., and a 100-μL portion was transferred to a preparation container. The apo-b siRNA aqueous solution (100 μL) was then added thereto while being stirred. Then, a 20 mM citric acid buffer (containing 300 mM NaCl, pH 6.0; 200 μL) was added to the lipid nucleic acid mixed suspension (200 μL) while being stirred. The siRNA concentration was brought to 10 μM by dropping a Dulbecco phosphate buffer (DPBS, Invitrogen; 662 μL), and preparations (compositions comprising compounds 1 to 117 and the nucleic acid) were obtained.
The average particle diameter of the complex between the cationic lipis and the nucleic acid in each preparation was measured with a particle diameter measurement device (Malvern; Zetasizer Nano ZS).

Compound	average particle diameter of the complex between the cationic lipis and the nucleic acid in the preparation
CCCCC/C=C\C/C=C\CCCCCCCC(=O)O[C@@H]1CN(C)C[C@H]1OC(=O)CCCCCCC/C=C\C/C=C\CCCCC [Compound A-3, (3R,4R)-1-Methylpyrrolidine-3,4-diyl di((9Z,12Z)-octadec-9,12-dienoate), reference compound]	141.0 nm
CCCCCCCC/C=C\CCCCCCCC(=O)OCC(C[N+](C)(C)C)OC(=O)CCCCCCC/C=C\CCCCCCCC.[Cl-] (centres unmarked) [Compound A-1, N(2,3-di-(9-(Z)-octadecenoyloxy))-prop-1-yl-N,N,N-trimethylammonium chloride, reference compound]	104.0 nm

Same assay, conditions: average particle diameter of cationic lipid/nucleic acid complex; Example 118 preparation: compound/PEG-DMPE Na/DSPC/cholesterol with apo-b siRNA

Compound	Particle diameter of Preparetion
CCCCC/C=C\C/C=C\CCCCCCCCO[C@H]1CN(C)C[C@H]1OCCCCCCCC/C=C\C/C=C\CCCCC [Compound 11, (3R,4S)-1-Methyl-3,4-bis((9Z,12Z)-octadec-9,12-dienyloxy)pyrrolidine]	135.8 nm
CCCCC/C=C\C/C=C\CCCCCCCC(=O)O[C@@H]1CN(C(=O)CN(C)C)C[C@H]1OC(=O)CCCCCCC/C=C\C/C=C\CCCCC [Compound 26, (3R,4R)-1-(2-(Dimethylamino)acetyl)pyrrolidine-3,4-diyl di((9Z,12Z)-octadec-9,12-dienoate)]	133.9 nm
CCCCC/C=C\C/C=C\CCCCCCCCO[C@@H]1CN(C2CCN(C)CC2)C[C@H]1OCCCCCCCC/C=C\C/C=C\CCCCC [Compound 60, 4-((3R,4R)-3,4-bis((9Z,12Z)-Octadec-9,12-dienyloxy)pyrrolidin-1-yl)-1-methylpiperidine]	125.3 nm
CCCCCC/C=C\CCCCCCCCOC[C@@H]1CN(C)C[C@H]1COCCCCCCCC/C=C\CCCCCC (relative stereo) [Compound 51, trans-3,4-bis(((Z)-Hexadec-9-enyloxy)methyl)-1-methylpyrrolidine]	123.9 nm
CCCCC/C=C\C/C=C\CCCCCCCCOC[C@@H]1CNC[C@H]1COCCCCCCCC/C=C\C/C=C\CCCCC (relative stereo) [Compound 102, trans-3,4-bis(((9Z,12Z)-Octadec-9,12-dienyloxy)methyl)pyrrolidine]	133.0 nm
CCCCC/C=C\C/C=C\CCCCCCCC(=O)O[C@@H]1CN(C(=O)CN)C[C@H]1OC(=O)CCCCCCC/C=C\C/C=C\CCCCC [Compound 65, (3R,4R)-1-(2-aminoacetyl)pyrrolidine-3,4-diyl di((9Z,12Z)-octadec-9,12-enoate)]	128.9 nm
CCCCC/C=C\C/C=C\CCCCCCCCO[C@@H]1CN(CCC(=O)N(C)C)C[C@H]1OCCCCCCCC/C=C\C/C=C\CCCCC [Compound 58, 3-((3R,4R)-3,4-bis((9Z,12Z)-Octadec-9,12-dienyloxy)pyrrolidin-1-yl)-N,N-dimethylpropanamide]	151.8 nm
CCCCCCCC/C=C\CCCCCCCCOCCN(CCOCCCCCCCC/C=C\CCCCCCCC)C(=O)CN(C)C [Compound 89, 2-(Dimethylamino)-N,N-bis(2-((Z)-octadec-9-enyloxy)ethyl)acetamide]	121.5 nm
CCCCC/C=C\C/C=C\CCCCCCCC(=O)O[C@@H]1CN(CC(O)CO)C[C@H]1OC(=O)CCCCCCC/C=C\C/C=C\CCCCC (stereo partly drawn) [Compound 53, (3R,4R)-1-(2,3-dihydroxypropyl)pyrrolidine-3,4-diyl di((9Z,12Z)-octadec-9,12-enoate)]	152.4 nm
CCCCC/C=C\C/C=C\CCCCCCCCO[C@@H]1CN(CCCN(C)C)C[C@H]1OCCCCCCCC/C=C\C/C=C\CCCCC [Compound 59, (3R,4R)-1-(3-N,N-Dimethylaminopropyl)-3,4-bis((9Z,12Z)-octadec-9,12-dienyloxy)pyrrolidine]	116.7 nm
CCCCCCCC/C=C\CCCCCCCCOCCN(C)CCOCCCCCCCC/C=C\CCCCCCCC [Compound 33, N-Methyl-N,N-bis(2-((Z)-octadec-9-enyloxy)ethyl)amine]	152.1 nm
CCCC/C=C\CCCCCCCCOCCN(C)CCOCCCCCCCC/C=C\CCCC [Compound 75, N-Methyl-N,N-bis(2-((Z)-Tetradec-9-enyloxy)ethyl)amine]	124.0 nm
CCCCCCCC/C=C\CCCCCCCCOCCN(CCOCCCCCCCC/C=C\CCCCCCCC)CCC(N)=O [Compound 84, 3-(bis(2-((2)-Octadec-9-enyloxy)ethyl)amino)propanamide]	120.2 nm
CCCCCCCC/C=C\CCCCCCCC(=O)OCCNCCOC(=O)CCCCCCC/C=C\CCCCCCCC [Compound 73, N,N-bis(2-((Z)-Octadec-9-enoyloxy)ethyl)amine]	146.8 nm
CCCCC/C=C\C/C=C\CCCCCCCCO[C@@H]1CN(C(=O)CCN)C[C@H]1OCCCCCCCC/C=C\C/C=C\CCCCC [Compound 62, (3R,4R)-1-(3-Aminopropanoyl)-3,4-bis((9Z,12Z)-octadec-9,12-dienyloxy)pyrrolidine]	151.3 nm
CCCCCCCCCCCCCCCCCCO[C@@H]1CNC[C@H]1OCCCCCCCCCCCCCCCCCC [Compound 39, (3R,4R)-3,4-bis(Octadecyloxy)pyrrolidine]	444.5 nm
CCCCC/C=C\C/C=C\CCCCCCCCO[C@H]1C[N+](C)(C)C[C@@H]1OCCCCCCCC/C=C\C/C=C\CCCCC [Compound 52, (3S,4S)-1,1-Dimethyl-3,4-bis((9Z,12Z)-octadec-9,12-dienyloxy)pyrrolidinium chloride]	118.9 nm
CCCCCCCCCCCCCCO[C@@H]1CN(C)C[C@H]1OCCCCCCCCCCCCCC [Compound 13, (3R,4R)-1-Methyl-3,4-bis(tetradecyloxy)pyrrolidine]	150.2 nm
CCCCCCCC/C=C\CCCCCCCCOCCN(CCOCCCCCCCC/C=C\CCCCCCCC)C(=O)[C@@H](N)CCCCN [Compound 94, (S)-2,6-Diamino-N,N-bis(2-((Z)-octadec-9-enyloxy)ethyl)hexanamido]	137.3 nm
CCCCC/C=C\C/C=C\CCCCCCCC(=O)O[C@@H]1CNC[C@H]1OC(=O)CCCCCCC/C=C\C/C=C\CCCCC [Compound 2, (3R,4R)-Pyrrolidine-3,4-diyl di((9Z,12Z)-octadec-9,12-dienoate)]	139.6 nm
CCCCC/C=C\C/C=C\CCCCCCCCCCOC[C@@H]1CN(C)C[C@H]1COCCCCCCCCCC/C=C\C/C=C\CCCCC (relative stereo) [Compound 108, trans-3,4-bis(((11Z,14Z)-Icos-11,14-dienyloxy)methyl)-1-methylpyrrolidine]	144.9 nm
CCCCCCCC/C=C\CCCCCCCCOCCN(CCOCCCCCCCC/C=C\CCCCCCCC)C(=O)CN [Compound 86, 2-Amino-N,N-bis(2-((Z)-octadec-9-enyloxy)ethyl)acetamide]	128.4 nm
CCCC/C=C\CCCCCCCCO[C@@H]1CN(C)C[C@H]1OCCCCCCCC/C=C\CCCC [Compound 47, (3R,4R)-1-Methyl-3,4-bis((Z)-tetradec-9-enyloxy)pyrrolidine]	125.8 nm
CCCCCC/C=C\CCCCCCCCCCO[C@@H]1CNC[C@H]1OCCCCCCCCCC/C=C\CCCCCC [Compound 41, (3R,4R)-3,4-bis((Z)-Octadec-11-enyloxy)pyrrolidine]	134.4 nm
CCCCC/C=C\C/C=C\CCCCCCCCO[C@@H]1CN(CC(O)CO)C[C@H]1OCCCCCCCC/C=C\C/C=C\CCCCC (stereo partly drawn) [Compound 24, 3-((3R,4R)-3,4-bis((9Z,12Z)-Octadec-9,12-dienyloxy)pyrrolidin-1-yl) propane-1,2-diol]	160.7 nm
CCCCCCCC/C=C\CCCCCCCC(=O)OCCN(CCOC(=O)CCCCCCC/C=C\CCCCCCCC)C(=O)CN(C)C [Compound 98, 2-(Dimethylamino)-N,N-bis(2-((Z)-octadec-9-enoyloxy)ethyl)acetamide]	124.1 nm
CCCCC/C=C\C/C=C\CCCCCCCC(=O)OCCN(CCOC(=O)CCCCCCC/C=C\C/C=C\CCCCC)C(=O)[C@@H](N)CCCCN [Compound 100, (S)-2,6-Diamino-N,N-bis(2-((9Z,12Z)-octadec-9,12-dienoyloxy)ethyl)hexanamido]	135.1 nm
